Where two headings read alike, the source gives them in different places.
Legend:
[1] = Bulk density for salts of Compound 1; assay type: physicochemical; conditions: Form A
[2] = assay type: physicochemical; conditions: 1 w
Method: For each salt, approximately 5 mg compound was added into an 8 mL glass vial with a multi-hole aluminum foil cap, and kept at 60° C., 40° C./75% RH for 1 week. […] Appearance by visual observation were recorded followed by purity assessment and XPRD data collection on the residual solids.

[3] = assay type: physicochemical
[4] = Dynamic vapor sorption (DVS), gravimetric moisture sorption; assay type: physicochemical; conditions: at 80% Relative Humidity, 25° C.
Method: Dynamic Vapor Sorption (DVS) were collected conducted using an SMS DVS Advantage 1 system. For each sample analyzed approximately 10 mg of material was transferred into the DVS instrument and recorded the weight change with respect to the atmospheric humidity at 25° C. using the following parameters: Equilibrium dm/dt: 0.01%/min, (for min: 10 min and max: 180 min); drying setting were 0% RH for 120 min; RH (%) measurement step at 10% and RH (%) measurement step scope of 0-90-0%.

[5] = assay type: physicochemical; conditions: for Final pH: 37° C., 24 h
[6] = 40° C./75% RH, listed as Hydrobromide (Form A)
[7] = 60° C., listed as Hydrobromide (Form A)
[8] = 1.2 million lux-hrs, listed as Hydrobromide (Form A)
[9] = Dark control, listed as Hydrobromide (Form A)
[10] = 40° C./75% RH, listed as Hydrobromide (Form C)
[11] = 60° C., listed as Hydrobromide (Form C)
[12] = 1.2 million lux-hrs, listed as Hydrobromide (Form C)
[13] = Dark control, listed as Hydrobromide (Form C)

## O=C(O)CC(O)(CC(=O)O)C(=O)O [Citrate]
[1]
  Bulk Density: 0.49 g/mL
  Tapped Density: 0.70 g/mL

## COC[C@@]1(O)CC[C@@]2(C)[C@@H](CC[C@@H]3[C@@H]2CC[C@]2(C)[C@@H](C(=O)Cn4ccnc4)CC[C@@H]32)C1.O=C(O)CC(O)(CC(=O)O)C(=O)O [Compound 1 Citrate (Form A)]
[2]; 40° C./75% RH
  Final purity: 99.4
  XRPD pattern: Form A
[2]; 60° C.
  Final purity: 99.5
  XRPD pattern: Form A
[3]; 1.2 million lux-hrs
  Final purity: 99.5
  XRPD pattern: Form A
[3]; Dark control
  Final purity: 99.5
  XRPD pattern: Form A
[4]
  gravimetric moisture sorption: about 3.6 % (by weight)

## COC[C@@]1(O)CC[C@@]2(C)[C@@H](CC[C@@H]3[C@@H]2CC[C@]2(C)[C@@H](C(=O)Cn4ccnc4)CC[C@@H]32)C1.O=C(O)CC(O)(CC(=O)O)C(=O)O [Compound 1 Citrate (Form B)]
[2]; 40° C./75% RH
  Final purity: 98.3
  XRPD pattern: Form B
[2]; 60° C.
  Final purity: 97.7
  XRPD pattern: Form B
[3]; 1.2 million lux-hrs
  Final purity: 99.3
  XRPD pattern: Form B
[3]; Dark control
  Final purity: 99.1
  XRPD pattern: Form B
[4]
  gravimetric moisture sorption: about 2.8 % (by weight)

## COCC1(O)CCC2(C)C(CCC3C2CCC2(C)C(C(=O)Cn4ccnc4)CCC32)C1.O=C(O)C(Cl)Cl (stereo not shown) [Compound 1 Dichloroacetate (Form A)]
[4]
  gravimetric moisture sorption: about 1.8 % (by weight)

## CCS(=O)(=O)O.COCC1(O)CCC2(C)C(CCC3C2CCC2(C)C(C(=O)Cn4ccnc4)CCC32)C1 (stereo not shown) [Compound 1 Ethanesulfonate (Form A)]
[4]
  gravimetric moisture sorption: about 1.4 % (by weight)

## COCC1(O)CCC2(C)C(CCC3C2CCC2(C)C(C(=O)Cn4ccnc4)CCC32)C1.O=C(O)c1cc(O)ccc1O (stereo not shown) [Compound 1 Gentisate (Form A)]
[4]
  gravimetric moisture sorption: about 3.1 % (by weight)

## Br.COC[C@@]1(O)CC[C@@]2(C)[C@@H](CC[C@@H]3[C@@H]2CC[C@]2(C)[C@@H](C(=O)Cn4ccnc4)CC[C@@H]32)C1 [Compound 1 HBr (Form A)]
[2]; [6]
  Final purity: 98.2
  XRPD pattern: Form A
[2]; [7]
  Final purity: 98.0
  XRPD pattern: Form A
[3]; [8]
  Final purity: 98.2
  XRPD pattern: Form A
[3]; [9]
  Final purity: 97.9
  XRPD pattern: Form A
[5]; FaSSIF (original pH = 6.51), listed as Hydrobromide (Form A)
  Final pH: 4.11
[5]; FeSSIF (original pH = 4.99), listed as Hydrobromide (Form A)
  Final pH: 5.01
[5]; SGF (original pH = 1.82)
  Final pH: 1.91
[4]
  gravimetric moisture sorption: about 1.1 % (by weight)

## Br.COCC1(O)CCC2(C)C(CCC3C2CCC2(C)C(C(=O)Cn4ccnc4)CCC32)C1 (stereo not shown) [Compound 1 HBr (Form B)]
[2]; 40° C./75% RH
  Final purity: 98.9
  XRPD pattern: Form B
[2]; 60° C.
  Final purity: 98.8
  XRPD pattern: Form B
[3]; 1.2 million lux-hrs
  Final purity: 98.4
  XRPD pattern: Form B
[3]; Dark control
  Final purity: 97.8
  XRPD pattern: Form B
[5]; FaSSIF (original pH = 6.51)
  Final pH: 5.51
[5]; FeSSIF (original pH = 4.99)
  Final pH: 4.89
[5]; SGF (original pH = 1.82)
  Final pH: 1.89
[4]
  gravimetric moisture sorption: about 0.2 % (by weight)

## Br.COC[C@@]1(O)CC[C@@]2(C)[C@@H](CC[C@@H]3[C@@H]2CC[C@]2(C)[C@@H](C(=O)Cn4ccnc4)CC[C@@H]32)C1 [Compound 1 HBr (Form C)]
[2]; [10]
  Final purity: 98.4
  XRPD pattern: Form C + B
[2]; [11]
  Final purity: 98.1
  XRPD pattern: Form C + B
[3]; [12]
  Final purity: 98.1
  XRPD pattern: Form C + B
[3]; [13]
  Final purity: 98.0
  XRPD pattern: Form C + B
[5]; FaSSIF (original pH = 6.51), listed as Hydrobromide (Form C)
  Final pH: 4.90
[5]; FeSSIF (original pH = 4.99), listed as Hydrobromide (Form C)
  Final pH: 5.05
[5]; SGF (original pH = 1.82), listed as Hydrobromide (Form C)
  Final pH: 1.99
[4]
  gravimetric moisture sorption: about 0.25 % (by weight)

## COCC1(O)CCC2(C)C(CCC3C2CCC2(C)C(C(=O)Cn4ccnc4)CCC32)C1.Cl (stereo not shown) [Compound 1 Hydrochloride (Form A)]
[4]
  gravimetric moisture sorption: about 3.6 % (by weight)

## COC(=O)c1ccc2c(c1)NC(=O)/C2=C(\Nc1ccc(N(C)C(=O)CN2CCN(C)CC2)cc1)c1ccccc1.Cl [Compound 1 Hydrochloride (Form B)]
[4]
  gravimetric moisture sorption: about 2.9 % (by weight)

## COC(=O)c1ccc2c(c1)NC(=O)/C2=C(\Nc1ccc(N(C)C(=O)CN2CCN(C)CC2)cc1)c1ccccc1.Cl [Compound 1 Hydrochloride (Form C)]
[4]
  gravimetric moisture sorption: about 0.7 % (by weight)

## COC[C@@]1(O)CC[C@@]2(C)[C@@H](CC[C@@H]3[C@@H]2CC[C@]2(C)[C@@H](C(=O)Cn4ccnc4)CC[C@@H]32)C1.O=S(=O)(O)CCO [Compound 1 Isethionate (Form A)]
[4]
  gravimetric moisture sorption: about 4.9 % (by weight)

## COC[C@@]1(O)CC[C@@]2(C)[C@@H](CC[C@@H]3[C@@H]2CC[C@]2(C)[C@@H](C(=O)Cn4ccnc4)CC[C@@H]32)C1.O=C(O)C(O)C(O)C(=O)O [Compound 1 L(+)-Tartrate (Form A)]
[4]
  gravimetric moisture sorption: about 1.6 % (by weight)

## COCC1(O)CCC2(C)C(CCC3C2CCC2(C)C(C(=O)Cn4ccnc4)CCC32)C1.O=C(O)C(O)C(O)C(=O)O (stereo not drawn) [Compound 1 L(+)-Tartrate (Form B)]
[4]
  gravimetric moisture sorption: about 1.7 % (by weight)

## COCC1(O)CCC2(C)C(CCC3C2CCC2(C)C(C(=O)Cn4ccnc4)CCC32)C1.O=C(O)CC(O)C(=O)O [Compound 1 L-Malate (Form A)]
[4]
  gravimetric moisture sorption: about 2.0 % (by weight)

## COCC1(O)CCC2(C)C(CCC3C2CCC2(C)C(C(=O)Cn4ccnc4)CCC32)C1.O=C(O)CC(O)C(=O)O [Compound 1 L-Malate (Form B)]
[4]
  gravimetric moisture sorption: about 3.5 % (by weight)

## COC(=O)c1ccc2c(c1)NC(=O)/C2=C(\Nc1ccc(N(C)C(=O)CN2CCN(C)CC2)cc1)c1ccccc1.CS(=O)(=O)O [Compound 1 Mesylate (Form A)]
[4]
  gravimetric moisture sorption: about 3.4 % (by weight)

## COC[C@@]1(O)CC[C@@]2(C)[C@@H](CC[C@@H]3[C@@H]2CC[C@]2(C)[C@@H](C(=O)Cn4ccnc4)CC[C@@H]32)C1.O=S(=O)(O)c1ccc2ccccc2c1 [Compound 1 Napsylate (Form A)]
[4]
  gravimetric moisture sorption: about 3.9 % (by weight)

## COCC1(O)CCC2(C)C(CCC3C2CCC2(C)C(C(=O)Cn4ccnc4)CCC32)C1.Nc1ccc(C(=O)O)c(O)c1 (stereo not shown) [Compound 1 P-Aminosalicylate (Form A)]
[4]
  gravimetric moisture sorption: about 4.0 % (by weight)

## COCC1(O)CCC2(C)C(CCC3C2CCC2(C)C(C(=O)Cn4ccnc4)CCC32)C1.O=P(O)(O)O (stereo not shown) [Compound 1 Phosphate (Form A)]
[4]
  gravimetric moisture sorption: about 2.1 % (by weight)

## COC[C@@]1(O)CC[C@@]2(C)[C@@H](CC[C@@H]3[C@@H]2CC[C@]2(C)[C@@H](C(=O)Cn4ccnc4)CC[C@@H]32)C1.O=S(=O)(O)O [Compound 1 Sulfate (Form A)]
[4]
  gravimetric moisture sorption: about 6.2 % (by weight)

## COCC1(O)CCC2(C)C(CCC3C2CCC2(C)C(C(=O)Cn4ccnc4)CCC32)C1.Cc1ccc(S(=O)(=O)O)cc1 (stereo not shown) [Compound 1 Tosylate (Form A)]
[4]
  gravimetric moisture sorption: about 1.5 % (by weight)

## Br.COC[C@@]1(O)CC[C@@]2(C)[C@@H](CC[C@@H]3[C@@H]2CC[C@]2(C)[C@@H](C(=O)Cn4ccnc4)CC[C@@H]32)C1 [HBr]
[1]
  Bulk Density: 0.27 g/mL
  Tapped Density: 0.50 g/mL

## COCC1(O)CCC2(C)C(CCC3C2CCC2(C)C(C(=O)Cn4ccnc4)CCC32)C1.O=P(O)(O)O (stereo not shown) [Phosphate]
[1]
  Bulk Density: 0.15 g/mL
  Tapped Density: 0.33 g/mL

## O=C(O)C(O)C(O)C(=O)O (stereo not shown) [Tartrate]
[1]
  Bulk Density: 0.13 g/mL
  Tapped Density: 0.32 g/mL

## COCC1(O)CCC2(C)C(CCC3C2CCC2(C)C(C(=O)Cn4ccnc4)CCC32)C1.Nc1ccc(C(=O)O)c(O)c1 (stereo not shown) [p-Aminosalicylate (Form A)]
[5]; FaSSIF (original pH = 6.51), after solubility test
  Final pH (FaSSIF): 5.12
[5]; FeSSIF (original pH = 4.99), after solubility test
  Final pH (FeSSIF): 5.06
[5]; SGF (original pH = 1.82), after solubility test
  Final pH (SGF): 3.73
